# Assay results: patent EP0167553B1, “NEW THERAPEUTICAL APPLICATION OF AN INDANE DIONE DERIVATIVE AND PHARMACEUTICAL COMPOSITIONS INTENDED TO SAID UTILIZATION” (priority 1983, dated 1985)
# Like-named read-outs stand apart in the source and are kept apart here.
# Key:
# [1] = Acute toxicity, single administration, intraperitoneal route; assay type: in vivo; details: mouse, in vivo, ip; for LD50 at 360 h: read-out: DL50; for mortality at 360 h: single dose
# Method: (§1) Souris SWISS mâles et femelles de 22 à 25g de poids corporel. Animaux EOPS.
# (§2) Sauf mention contraire précisée dans les tableaux de résultats, 10 animaux par dose, sexe et cage en MAKROLON SAFI@ de 40/25 cm. Litière de copeaux de bois blanc. Alimentation standard pour rats et souris UAR et eau ordinaire à volonté.
# (§3) Ils sont administrés sans jeûne préalable: • - par voie digestive (intubation gastrique par sonde oesophagienne métallique) à raison de 0,5 ml ou 1 ml pour 20 g de poids corporel d'une suspension aqueuse à 3p.100 en gomme arabique du dérivé testé. • - par voie intrapéritonéale à raison de 0,5 ml ou 1 ml pour 20 g d'une suspension du dérivé testé dans le soluté isotonique de chlorure de sodium à 3p.100 en gomme arabique.
# (§4) Pendant 6 heures après l'administration unique, puis tous les jours pendant 15 jours.
# (§5) S'il y a lieu, les doses létales cinquante (DL50) sont calculées selon les méthodes de: • - Behrens et Karber (B.K.) • - Miller et Tainter (M.T.), cette dernière méthode permettant d'attribuer, pour le seuil de probabilité de P = 0,05 un intervalle de confiance aux DL 50.
# (§6) En outre, sont déterminées les DLO et DL100. • - DLO = DMT: Dose Maxima toujours tolérée • - DL100 = DmM: Dose minima toujours Mortelle.
# Souris SWISS [2] = test: as above; assay type: in vivo; details: for DLO: DLO = Dose Maxima toujours tolérée
# Method: as §1, §2, §3, §4, §5, §6
# Rats: Wistar femelles = test: Atherogenic diet (modified Aubert technique): mortality, body weight, tolerance, overall score; assay type: in vivo, Rat Wistar; details: 100 mg/kg; for taux de mortalité: lots of 15 rats on atherogenic diet; for Score Total: sum of Biochimie, Risque athérogène, Macroscopie, Histologie
# Method: • - Rats: Wistar femelles, E.O.P.S. en provenance de l'élevage EVIC-CEBA. • - Poids corporel: 160 180 g au départ de l'étude • - Alimentation: UAR A03, enrichi en cholestérol (0,5 %) et en Acide chloique (0,5 %). • - Eau de boisson: eau de ville. • - 15 animaux par lot et par cage MAKROLON SAFI® de 59 x 38,5 cm sur litière de copeaux de bois blanc dépoussiérés. • - Cages placées dans un module animalerie climatisé (20°C * 1°C), à l'humidité constante (50 % ± 10 %). Durée d'éclairement: 12 heures par jour (7 h à 19 h). • - Administration des produits: Après 15 jours de régime athéromateux, on leur administre par voie orale pendant 4 jours 250 000 Ul/kg de vitamine D2 (Stérogyl 15 H) en solution dans l'huile d'olive. On administre ensuite les produits à étudier pendant 4 semaines dès la fin de l'administration de l'agent lésionnel.
# L'étude porte sur 5 Lots de 15 rats (tableau N° IV)
# (§7) • - Le comportement et l'[…] pondérale des animaux sont étudiés par l'observation quotidienne et les pesées hebdomadaires. L'étude de l'évolution pondérale ne montre pas de différence significative entre les différents lots. C'est un indice de bonne tolérance du traitement. • - La moralité est notée dans chaque lot; elle peut atteindre 30 % des animaux ce qui nécessite des lots de 15 animaux. L'administration chronique de 100 mg/kg de Clofibrate correspond à la dose maximale tolérée par le Rat sain selon nos expériences personnelles.
# Les scores obtenus par les différents produits étudiés sont les suivants (Tableau V)
# Rat sain = test: Chronic administration, maximum tolerated dose in the rat; assay type: in vivo; details: administration chronique
# Method: as §7
# [3] = as above; assay type: in vivo; details: rat, in vivo, administration chronique, read-out: dose maximale tolérée
# Method: as §7
# [4] = Acute toxicity, single administration, digestive (oral) route; assay type: in vivo; details: mouse, in vivo, po
# Source text: (§8) Souris SWISS mâles et femelles de 22 à 25g de poids corporel. Animaux EOPS. (exempte d'organisme pathogène spécifique), en provenance de l'élevage CERJ., 53680 LE GENEST et acclimatés au moins 8 jours à l'animalerie du laboratoire.
# as §2, §3, §4, §5, §6
# Souris SWISS [5] = test: as above; assay type: in vivo; details: for létalité, symptomatologie toxique: 10.000 mg/kg VO, single dose, 10 souris mâles et femelles
# Source text: as §8, §2, §3, §4, §5, §6
structure (smiles),measurement,setting,value
CCOC(=O)C(C)(C)Oc1ccc(Cl)cc1 [Clofibrate],LD50 at 360 h,"[1]; voie intrapéritonéale, mâles, ""de l'ordre de""",~1850 mg/kg
same,DL50,"Souris SWISS [2]; mouse, in vivo, ip, 21600 min",~1700 mg/kg
same,taux de mortalité,Rats: Wistar femelles,4/15
same,Score Total,Rats: Wistar femelles,13.00
same,dose maximale tolérée,Rat sain,100 mg/kg
same,MTD,[3],~100 mg/kg
same,LD50 at 360 h,[4]; DL50,2500 ± 235 mg/kg
same,DL50,"Souris SWISS [5]; mouse, in vivo, po, 360 h",2650 ± 190 mg/kg
"COc1ccc(C(=O)CC2(O)C(=O)c3ccccc3C2=O)cc1OC [Produit de l'invention, 2-[(3,4-dimethoxybenzoyl)methyl] 2-hydroxy 1,3-dioxo indane]",mortality at 360 h,"[1]; 2000 mg/kg, 2000 mg/kg IP, read-out: Létalite sur 10 souris Femelles",0%
same,mortality at 360 h,"[1]; 2000 mg/kg, 2000 mg/kg IP, read-out: Létalite sur 10 souris Mâles",0%
same,mortality at 360 h,"[1]; 2500 mg/kg, 2500 mg/kg IP, read-out: Létalite sur 10 souris Femelles",10%
same,mortality at 360 h,"[1]; 2500 mg/kg, 2500 mg/kg IP, read-out: Létalite sur 10 souris Mâles",10%
same,mortality at 360 h,"[1]; 3000 mg/kg, 3000 mg/kg IP, read-out: Létalite sur 10 souris Femelles",60%
same,mortality at 360 h,"[1]; 3000 mg/kg, 3000 mg/kg IP, read-out: Létalite sur 10 souris Mâles",30%
same,mortality at 360 h,"[1]; 3500 mg/kg, 3500 mg/kg IP, read-out: Létalite sur 10 souris Femelles",80%
same,mortality at 360 h,"[1]; 3500 mg/kg, 3500 mg/kg IP, read-out: Létalite sur 10 souris Mâles",50%
same,mortality at 360 h,"[1]; 4000 mg/kg, 4000 mg/kg IP, read-out: Létalite sur 10 souris Femelles",100%
same,mortality at 360 h,"[1]; 4000 mg/kg, 4000 mg/kg IP, read-out: Létalite sur 10 souris Mâles",80%
same,mortality at 360 h,"[1]; 4500 mg/kg, 4500 mg/kg IP, read-out: Létalite sur 10 souris Femelles",100%
same,mortality at 360 h,"[1]; 4500 mg/kg, 4500 mg/kg IP, read-out: Létalite sur 10 souris Mâles",100%
same,mortality at 360 h,"[1]; 5000 mg/kg, 5000 mg/kg IP, read-out: Létalite sur 10 souris Femelles",100%
same,mortality at 360 h,"[1]; 5000 mg/kg, 5000 mg/kg IP, read-out: Létalite sur 10 souris Mâles",100%
same,LD50 at 360 h,"[1]; Souris Femelles, method Behrens et Karber (B.K.)",3000 mg/kg
same,LD50 at 360 h,"[1]; Souris Femelles, method Miller et Tainter (M.T.), confidence interval P = 0,05",3000 ± 145 mg/kg
same,LD50 at 360 h,"[1]; Souris Mâles, method Behrens et Karber (B.K.)",3400 mg/kg
same,LD50 at 360 h,"[1]; Souris Mâles, method Miller et Tainter (M.T.), confidence interval P = 0,05",3350 ± 190 mg/kg
same,LD50 at 360 h,"[1]; voie intrapéritonéale, sex not specified, ""de l'ordre de""",~3000 mg/kg
same,DLO,"Souris SWISS [2]; IP, Souris Femelles",2000 mg/kg
same,DLO,"Souris SWISS [2]; IP, Souris Mâles",2000 mg/kg
same,La mort survient par arrêt respiratoire en,"Souris SWISS [2]; IP, time to death after injection",24 - 48 heures
same,taux de mortalité,Rats: Wistar femelles,2/15
same,Score Total,Rats: Wistar femelles,10.46
same,LD50 at 360 h,"[4]; VO, souris mâles et femelles, read-out: DL50",> 10000 mg/kg
same,"létalité, symptomatologie toxique",Souris SWISS [5],"ni létalité, ni symptomatologie toxique"
same,"létalité, symptomatologie toxique",Souris SWISS [5]; listed as dérivé,n'est pas toxique
same,DLO,"Souris SWISS [5]; VO, souris mâles et femelles",≥ 10.000 mg/kg
same,DL100,"Souris SWISS [5]; mouse, in vivo, 21600 min",> 10000 mg/kg
